Measurements: the supplement of paper PMC10307832

What follows are cell lines tested with CO[C@@H]1[C@H](N(C)C(=O)c2ccccc2)C[C@H]2O[C@]1(C)n1c3ccccc3c3c4c(c5c6ccccc6n2c5c31)C(=O)NC4 [Midostaurin] + CS(=O)(=O)N1CCN(Cc2cc3nc(-c4cccc5[nH]ncc45)nc(N4CCOCC4)c3s2)CC1 [Pictilisib] (partner 1 µM) (assay: relative viability (nuclei count vs DMSO), 5 days (fraction); higher = more cells survive). Settings: first compound 0.1 µM.
Method in brief: (§1)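 Lung cancer cell lines in 1536-well plates got either a single drug or a fixed anchor-drug dose together with five library-drug doses (not always all listed) in √10 steps, by pin tool, on the day after seeding. Nuclei were counted after 5 days, and relative viability is the treated-to-vehicle ratio of nuclei counts. Values are medians of duplicate plates.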

Row | Cell Line | relative viability
1 | SW 1573 | 0.456
2 | NCI-H838 | 0.302
3 | NCI-H520 | 0.3
4 | NCI-H2126 | 0.499
5 | EMC-BAC-2 | 0.494
6 | NCI-H2085 | 0.448
7 | HCC-366 | 0.142
8 | NCI-H1666 | 0.523
9 | NCI-H596 | 0.435
10 | LK-2 | 0.586
11 | NCI-H2087 | 0.979
12 | SK-MES-1 | 0.431
13 | H3255 | 0.471
14 | COR-L23 | 0.752
15 | COR-L 105 | 0.337
16 | LOU-NH91 | 0.514
17 | NCI-H2170 | 0.301
18 | HOP-62 | 0.735
19 | HCC-44 | 0.692
20 | LU99A | 0.302
21 | BEN | 0.608
22 | HARA | 0.295
23 | HCC-78 | 0.229
24 | NCI-H322M | 0.5
25 | LCLC-97TM1 | 0.163
26 | NCI-H2009 | 0.752
27 | A-427 | 0.702
28 | NCI-H661 | 0.33
29 | NCI-H1734 | 0.496

Same assay, conditions: first compound 0.3162 µM

Row | Cell Line | relative viability
30 | SW 1573 | 0.454
31 | NCI-H838 | 0.276
32 | NCI-H520 | 0.362
33 | NCI-H2126 | 0.523
34 | EMC-BAC-2 | 0.475
35 | NCI-H2085 | 0.446
36 | HCC-366 | 0.137
37 | NCI-H1666 | 0.516
38 | NCI-H596 | 0.424
39 | LK-2 | 0.599
40 | NCI-H2087 | 1.18
41 | SK-MES-1 | 0.368
42 | H3255 | 0.459
43 | COR-L23 | 0.603
44 | COR-L 105 | 0.34
45 | LOU-NH91 | 0.562
46 | NCI-H2170 | 0.317
47 | NCI-H2405 | 0.379
48 | HOP-62 | 1.11
49 | HCC-44 | 0.327
50 | LU99A | 0.245
51 | BEN | 0.652
52 | HARA | 0.333
53 | HCC-78 | 0.19
54 | NCI-H322M | 0.594
55 | LCLC-97TM1 | 0.313
56 | NCI-H2009 | 0.555
57 | A-427 | 0.578
58 | NCI-H661 | 0.438
59 | NCI-H1734 | 0.303

These cell lines were tested with COc1cc(-c2nn([C@H]3CC[C@H](N4CCN(C(C)=O)CC4)CC3)c3ncnc(N)c23)ccc1NC(=O)c1cc2ccccc2n1C + CC(=O)Nc1cccc(-n2c(=O)n(C3CC3)c(=O)c3c(Nc4ccc(I)cc4F)n(C)c(=O)c(C)c32)c1 [Trametinib] (partner 0.02 µM) in the same assay as above. Settings: first compound 0.0128 µM.
Method in brief: as §1

Row | Cell Line | relative viability
60 | SW 1573 | 0.52
61 | NCI-H838 | 0.5
62 | NCI-H520 | 0.606
63 | NCI-H2126 | 0.55
64 | EMC-BAC-2 | 0.901
65 | NCI-H2085 | 0.611
66 | HCC-366 | 0.309
67 | NCI-H1666 | 0.899
68 | NCI-H596 | 0.915
69 | LK-2 | 0.978
70 | NCI-H2087 | 0.209
71 | SK-MES-1 | 0.563
72 | H3255 | 0.611
73 | COR-L23 | 0.585
74 | COR-L 105 | 0.481
75 | LOU-NH91 | 0.821
76 | NCI-H2170 | 0.992
77 | NCI-H2405 | 0.645
78 | HOP-62 | 0.428
79 | HCC-44 | 1.19
80 | LU99A | 0.578
81 | BEN | 1.07
82 | HARA | 0.617
83 | HCC-78 | 0.851
84 | NCI-H322M | 0.453
85 | LCLC-97TM1 | 0.22
86 | NCI-H2009 | 0.251
87 | A-427 | 0.82
88 | NCI-H661 | 0.474
89 | NCI-H1734 | 0.721

Same assay, conditions: first compound 0.04048 µM

Row | Cell Line | relative viability
90 | SW 1573 | 0.556
91 | NCI-H838 | 0.479
92 | NCI-H520 | 0.354
93 | NCI-H2126 | 0.497
94 | EMC-BAC-2 | 0.537
95 | NCI-H2085 | 0.643
96 | HCC-366 | 0.281
97 | NCI-H1666 | 0.835
98 | NCI-H596 | 0.8
99 | LK-2 | 0.399
100 | SK-MES-1 | 0.4
101 | H3255 | 0.44
102 | COR-L23 | 0.25
103 | COR-L 105 | 0.489
104 | LOU-NH91 | 0.828
105 | NCI-H2170 | 0.797
106 | NCI-H2405 | 0.307
107 | HOP-62 | 0.173
108 | HCC-44 | 0.716
109 | LU99A | 0.288
110 | BEN | 0.97
111 | HARA | 0.273
112 | HCC-78 | 0.536
113 | NCI-H322M | 0.489
114 | LCLC-97TM1 | 0.125
115 | NCI-H2009 | 0.252
116 | A-427 | 0.462
117 | NCI-H661 | 0.469
118 | NCI-H1734 | 0.445

Same assay, conditions: first compound 0.128 µM

Row | Cell Line | relative viability
119 | SW 1573 | 0.492
120 | NCI-H838 | 0.506
121 | NCI-H520 | 0.55
122 | NCI-H2126 | 0.508
123 | EMC-BAC-2 | 0.834
124 | NCI-H2085 | 0.405
125 | HCC-366 | 0.305
126 | NCI-H1666 | 0.819
127 | NCI-H596 | 0.88
128 | LK-2 | 0.577
129 | NCI-H2087 | 0.207
130 | SK-MES-1 | 0.539
131 | H3255 | 0.613
132 | COR-L23 | 0.564
133 | COR-L 105 | 0.412
134 | LOU-NH91 | 0.822
135 | NCI-H2170 | 0.919
136 | NCI-H2405 | 0.532
137 | HOP-62 | 0.376
138 | HCC-44 | 1.07
139 | LU99A | 0.529
140 | BEN | 0.953
141 | HARA | 0.56
142 | HCC-78 | 0.776
143 | NCI-H322M | 0.491
144 | LCLC-97TM1 | 0.139
145 | NCI-H2009 | 0.236
146 | A-427 | 0.759
147 | NCI-H661 | 0.557
148 | NCI-H1734 | 0.664

Same assay, conditions: first compound 1.28 µM

Row | Cell Line | relative viability
149 | SW 1573 | 0.477
